Results: US9783556B2, “Kinase inhibitors” (RESPIVERT LIMITED, priority 2012, dated 2017)

Legend:
GSK 3α = GSK 3α (Homo sapiens (Human), UniProt P49840); assay: GSK 3α enzyme inhibition (Z-LYTE FRET); format: biochemical; details: read-out: IC50 Values for Enzyme Inhibition GSK3α
Method: (§1) The enzyme inhibitory activities of compounds disclosed herein are determined by FRET using synthetic peptides labelled with both donor and acceptor fluorophores (Z-LYTE, Invitrogen Ltd., Paisley, UK).
The following two assay variants can be used for determination of GSK 3α inhibition.
The inhibitory activities of compounds of the invention against the GSK 3α enzyme isoform (Invitrogen), are evaluated by determining the level of activation/phosphorylation of the target peptide. The GSK3-α protein (500 ng/mL, 2.5 μL) is mixed with the test compound (2.5 μL at either 4 μg/mL, 0.4 μg/mL, 0.04 μg/mL, or 0.004 μg/mL) for 2 hr at RT. The FRET peptide (8 μM, 2.5 μL), which is a phosphorylation target for GSK3α, and ATP (40 μM, 2.5 μL) are then added to the enzyme/compound mixture and the resulting mixture incubated for 1 hr. Development reagent (protease, 5 μL) is added for 1 hr prior to detection in a fluorescence microplate reader (Varioskan® Flash, ThermoFisher Scientific).
(§2) In all cases, the site-specific protease cleaves non-phosphorylated peptide only and eliminates the FRET signal. Phosphorylation levels of each reaction are calculated using the ratio of coumarin emission (donor) over fluorescein emission (acceptor), for which high ratios indicate high phosphorylation and low ratios indicate low phosphorylation levels. The percentage inhibition of each reaction is calculated relative to non-inhibited control and the 50% inhibitory concentration (IC50 value) is then calculated from the concentration-response curve.
This method follows the same steps as Method 1 above, but utilises a shorter period of mixing of the test compound (105 minutes instead of 2 hours) with the GSK3-α protein.

PBMCs [1] = assay: LPS-induced TNFα/IL-8 release in PBMC cells; format: cell-based; details: Homo sapiens, LPS-stimulated PBMCs, IL-8, read-out: IC50 Values for Inhibition of Cytokine Release PBMCs IL-8
Method: Peripheral blood mononuclear cells (PBMCs) from healthy subjects are separated from whole blood using a density gradient (Lymphoprep, Axis-Shield Healthcare). The PBMCs are seeded in 96 well plates and treated with compounds at the desired concentration for 2 hours before addition of 1 ng/mL LPS (Escherichia Coli 0111:B4 from Sigma Aldrich) for 24 hours under normal tissue culture conditions (37° C., 5% CO2). The supernatant is harvested for determination of IL-8 and TNFα concentrations by sandwich ELISA (Duo-set, R&D systems) and read on the fluorescence microplate reader (Varioskan® Flash, ThermoFisher Scientific). The concentration at 50% inhibition (IC50) of IL-8 and TNFα production is calculated from the dose response curve.

[2] = biological target: p38 MAPKα isoform (MAPK14) (Homo sapiens (Human), UniProt Q16539); assay: p38 MAPKα enzyme inhibition (Z-LYTE FRET); format: biochemical
Method: as §1
The following two assay variants can be used for determination of p38 MAPKα inhibition.
The inhibitory activities of test compounds against the p38 MAPKα isoform (MAPK14: Invitrogen), are evaluated indirectly by determining the level of activation/phosphorylation of the down-stream molecule, MAPKAP-K2. The p38 MAPKα protein (80 ng/mL, 2.5 μL) is mixed with the test compound (2.5 μL of either 4 μg/mL, 0.4 μg/mL, 0.04 μg/mL or 0.004 μg/mL) for 2 hr at RT. […] The mixture is incubated for 1 hr at RT. Development reagent (protease, 5 μL) is added for 1 hr prior to detection in a fluorescence microplate reader (Varioskan® Flash, ThermoFisher Scientific).
This method follows the same steps as Method 1 above, but utilises a higher concentration of the p38 MAPKα protein (2.5 μL of 200 ng/mL protein instead of 2.5 μL of 80 ng/mL protein) for mixing with the test compound.
as §2

c-Src = c-Src (Homo sapiens (Human), UniProt P12931); assay: c-Src enzyme inhibition (Z-LYTE FRET); format: biochemical
Method: as §1
(§3) The inhibitory activities of compounds of the invention against c-Src and Syk enzymes (Invitrogen), are evaluated in a similar fashion to that described hereinabove. The relevant enzyme (3000 ng/mL or 2000 ng/mL respectively, 2.5 μL) is incubated with the test compound (either 4 μg/mL, 0.4 μg/mL, 0.04 μg/mL, or 0.004 μg/mL, 2.5 μL each) for 2 hr at RT. The FRET peptides (8 μM, 2.5 μL), and appropriate ATP solutions (2.5 μL, 800 μM for c-Src, and 60 μM ATP for Syk) are then added to the enzymes/compound mixtures and incubated for 1 hr. Development reagent (protease, 5 μL) is added for 1 hr prior to detection in a fluorescence microplate reader (Varioskan® Flash, ThermoFisher Scientific).
as §2

Syk = Syk (Homo sapiens (Human), UniProt P43405); assay: Syk enzyme inhibition (Z-LYTE FRET); format: biochemical
Method: as §1, §3, §2

PBMCs [3] = assay: IL-2 and IFN gamma release in CD3/CD28 stimulated PBMC cells; format: cell-based; details: Homo sapiens, IL-2, read-out: IC50 Values for Inhibition of Cytokine Release PBMCs IL-2
Method: PBMCs from healthy subjects are separated from whole blood using a density gradient (Lymphoprep, Axis-Shield Healthcare). Cells are added to a 96 well plate pre-coated with a mixture of CD3/CD38 monoclonal antibodies (0.3 μg/mL eBioscience and 3 μg/mL BD Pharmingen respectively). Compound at the desired concentration is then added to the wells and the plate left for 3 days under normal tissue culture conditions. Supernatants are harvested and IL-2 and IFN gamma release determined by Sandwich ELISA (Duo-set, R&D System). The IC50 is determined from the dose response curve.

HT29 cells = assay: IL-1β-induced IL-8 release in HT29 cells; format: cell-based; details: Homo sapiens, HT-29, IL-1β-stimulated HT29 cells, read-out: IC50 Values for Inhibition of Cytokine Release HT29 cells IL-8
Method: HT29 cells, a human colon adenocarcinoma cell line, are plated in a 96 well plate (24 hrs) and pre-treated with compounds at the desired concentration for 2 hours before addition of 5 ng/mL of IL-1β (Abcam) for 24 hours. Supernatants are harvested for IL-8 quantification by Sandwich ELISA (Duo-set, R&D System). The IC50 is determined from the dose response curve.

Sequence of p38 MAPKα isoform (MAPK14) (Q16539 whole entry, canonical isoform): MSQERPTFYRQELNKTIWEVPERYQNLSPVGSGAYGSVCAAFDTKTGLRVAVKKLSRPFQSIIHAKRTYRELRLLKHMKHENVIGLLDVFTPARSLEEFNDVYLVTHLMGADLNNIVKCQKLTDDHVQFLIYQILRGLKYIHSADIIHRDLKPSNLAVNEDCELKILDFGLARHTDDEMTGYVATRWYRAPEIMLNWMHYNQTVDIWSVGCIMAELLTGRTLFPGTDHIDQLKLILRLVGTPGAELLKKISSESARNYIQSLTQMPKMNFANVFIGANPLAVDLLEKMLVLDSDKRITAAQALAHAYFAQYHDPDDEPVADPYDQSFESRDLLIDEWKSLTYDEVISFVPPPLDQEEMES
Sequence of c-Src (P12931 whole entry, looked up): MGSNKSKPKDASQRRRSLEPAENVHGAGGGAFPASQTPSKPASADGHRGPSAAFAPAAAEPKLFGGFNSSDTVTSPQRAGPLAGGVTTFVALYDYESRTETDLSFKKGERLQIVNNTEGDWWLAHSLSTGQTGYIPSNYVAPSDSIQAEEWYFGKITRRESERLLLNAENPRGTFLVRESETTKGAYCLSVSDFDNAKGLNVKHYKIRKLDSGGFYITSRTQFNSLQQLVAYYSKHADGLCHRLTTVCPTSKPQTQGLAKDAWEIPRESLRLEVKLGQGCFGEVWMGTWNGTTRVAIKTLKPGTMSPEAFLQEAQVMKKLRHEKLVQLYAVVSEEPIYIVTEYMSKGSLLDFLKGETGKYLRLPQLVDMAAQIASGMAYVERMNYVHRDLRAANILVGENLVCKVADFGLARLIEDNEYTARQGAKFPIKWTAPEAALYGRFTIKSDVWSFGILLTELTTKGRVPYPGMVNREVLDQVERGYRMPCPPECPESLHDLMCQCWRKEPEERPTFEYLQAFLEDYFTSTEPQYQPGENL
Sequence of GSK 3α (P49840 whole entry): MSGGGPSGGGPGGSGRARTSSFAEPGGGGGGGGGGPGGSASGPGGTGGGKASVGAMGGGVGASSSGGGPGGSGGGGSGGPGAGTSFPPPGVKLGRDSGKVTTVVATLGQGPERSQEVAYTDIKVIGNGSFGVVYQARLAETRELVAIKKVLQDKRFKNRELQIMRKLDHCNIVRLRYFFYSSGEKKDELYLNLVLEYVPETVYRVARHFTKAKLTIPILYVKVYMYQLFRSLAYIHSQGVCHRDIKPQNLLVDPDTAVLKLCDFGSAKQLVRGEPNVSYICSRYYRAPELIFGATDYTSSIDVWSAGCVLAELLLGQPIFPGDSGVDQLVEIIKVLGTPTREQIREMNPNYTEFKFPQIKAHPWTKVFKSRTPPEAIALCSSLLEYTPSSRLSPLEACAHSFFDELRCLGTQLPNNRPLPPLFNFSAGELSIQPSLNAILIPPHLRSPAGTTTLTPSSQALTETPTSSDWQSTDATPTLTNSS

Structure (SMILES) | IC50 (GSK 3α) [nM] | IC50 (PBMCs [1]) [nM] | IC50 [2] [nM] | IC50 (c-Src) [nM] | IC50 (Syk) [nM] | IC50 (PBMCs [3]) [nM] | IC50 (HT29 cells) [nM]
CC[Si](CC)(CC)c1cc(NC(=O)Nc2ccc(Oc3ccnc(Nc4ccccc4)n3)c3ccccc23)n(-c2ccc(C)cc2)n1 [Example 4, 1-(4-((2-(phenylamino)pyrimidin-4-yl)oxy)naphthalen-1-yl)-3-(1-(p-tolyl)-3-(triethylsilyl)-1H-pyrazol-5-yl)urea] | > 10000 | 95.9 |  |  |  |  | 
Cc1ccc(-n2nc([Si](C)(C)C(C)(C)C)cc2NC(=O)Nc2ccc(Oc3ccnc(Nc4ccccc4)n3)c3ccccc23)cc1 [Example 5, 1-(3-(tert-Butyldimethylsilyl)-1-(p-tolyl)-1H-pyrazol-5-yl)-3-(4-((2-(phenylamino)pyrimidin-4-yl)oxy)naphthalen-1-yl)urea] | 5010 | 113 |  |  |  |  | 
Cc1ccc(-n2nc([Si](C)(C)C)cc2NC(=O)Nc2ccc(Oc3ccnc(Nc4ccc5onc(N)c5c4)n3)c3ccccc23)cc1 [Example 8, 1-(4-((2-((3-Aminobenzo[d]isoxazol-5-yl)amino)pyrimidin-4-yl)oxy)naphthalen-1-yl)-3-(1-(p-tolyl)-3-(trimethylsilyl)-1H-pyrazol-5-yl)urea] | 2150 | 3.9 | > 1000 | 37 | 269 |  | 
Cc1ccc(-n2nc([Si](C)(C)C)cc2NC(=O)Nc2ccc(Oc3ccnc(Nc4cccc(OCCN(C)C)c4)n3)c3ccccc23)cc1 [Example 11, 1-(4-((2-((3-(2-(Dimethylamino)ethoxy)phenyl)amino)pyrimidin-4-yl)oxy)naphthalen-1-yl)-3-(1-(p-tolyl)-3-(trimethylsilyl)-1H-pyrazol-5-yl)urea] | 690 | 1.4 |  |  |  |  | 
COc1cc(Nc2nccc(Oc3ccc(NC(=O)Nc4cc([Si](C)(C)C)nn4-c4ccc(C)cc4)c4ccccc34)n2)cc(C(=O)NCCN2CCOCC2)c1 [Example 12, 3-Methoxy-N-(2-morpholinoethyl)-5-((4-((4-(3-(1-(p-tolyl)-3-(trimethylsilyl)-1H-pyrazol-5-yl)ureido)naphthalen-1-yl)oxy)pyrimidin-2-yl)amino)benzamide] | 1920 | 0.9 | 142 | 10 | 17 | 28.2 | 
Cc1ccc(-n2nc([Si](C)(C)C)cc2NC(=O)Nc2ccc(Oc3ccnc(Nc4ccccn4)n3)c3ccccc23)cc1 [Example 14, 1-(4-((2-(pyridin-2-ylamino)pyrimidin-4-yl)oxy)naphthalen-1-yl)-3-(1-(p-tolyl)-3-(trimethylsilyl)-1H-pyrazol-5-yl)urea] | > 10000 | 36.6 |  | 360 | > 1000 |  | 
Cc1cc(Nc2nccc(Oc3ccc(NC(=O)Nc4cc([Si](C)(C)C)nn4-c4ccc(OCCN5CCOCC5)cc4)c4ccccc34)n2)cc2cn[nH]c12 [Example 15, 1-(4-((2-((7-Methyl-1H-indazol-5-yl)amino)pyrimidin-4-yl)oxy)naphthalen-1-yl)-3-(1-(4-(2-morpholinoethoxy)phenyl)-3-(trimethylsilyl)-1H-pyrazol-5-yl)urea] | 3490 | 2.2 | 253 | 15 | 24 | 30.7 | 6.5
CC[Si](C)(C)c1cc(NC(=O)Nc2ccc(Oc3ccnc(Nc4ccccc4)n3)c3ccccc23)n(-c2ccc(C)cc2)n1 [Example 16, 1-(3-(Ethyldimethylsilyl)-1-(p-tolyl)-1H-pyrazol-5-yl)-3-(4-((2-(phenylamino)pyrimidin-4-yl)oxy)naphthalen-1-yl)urea] | > 10000 | 14.8 |  | 116 | > 1000 |  | 
Cc1ccc(-n2nc([Si](C)(C)C)cc2NC(=O)Nc2ccc(Oc3ccnc(Nc4cc(C)c5[nH]ncc5c4)n3)c(Cl)c2Cl)cc1 [Example 17, 1-(2,3-Dichloro-4-((2-((7-methyl-1H-indazol-5-yl)amino)pyrimidin-4-yl)oxy)phenyl)-3-(1-(p-tolyl)-3-(trimethylsilyl)-1H-pyrazol-5-yl)urea] | > 10000 | 8 |  |  |  |  | 
COc1cc(Nc2nccc(Oc3ccc(NC(=O)Nc4cc([Si](C)(C)C)nn4-c4ccc(C)cc4)c(Cl)c3Cl)n2)cc(OCCN2CCOCC2)c1 [Example 18, 1-(2,3-Dichloro-4-((2-((3-methoxy-5-(2-morpholinoethoxy)phenyl)amino)pyrimidin-4-yl)oxy)phenyl)-3-(1-(p-tolyl)-3-(trimethylsilyl)-1H-pyrazol-5-yl)urea] | > 10000 | 2.7 | > 1000 | 41 | 59 |  | 
COc1cc(Nc2nccc(Oc3ccc(NC(=O)Nc4cc([Si](C)(C)C)nn4-c4ccc(C)cc4)c4ccccc34)n2)cc(C(=O)NC[C@H](O)[C@@H](O)[C@H](O)[C@H](O)CO)c1 [Example 19, 3-Methoxy-N-((2S,3R,4R,5R)-2,3,4,5,6-pentahydroxyhexyl)-5-((4-((4-(3-(1-(p-tolyl)-3-(trimethylsilyl)-1H-pyrazol-5-yl)ureido)naphthalen-1-yl)oxy)pyrimidin-2-yl)amino)-benzamide] | 6730 | 76 |  |  |  |  | 
Cc1ccc(-n2nc([Si](C)(C)C)cc2NC(=O)Nc2ccc(Oc3ccnc(Nc4ccc5c(c4)CNC5=O)n3)c3ccccc23)cc1 [Example 20, 1-(4-((2-((1-Oxoisoindolin-5-yl)amino)pyrimidin-4-yl)oxy)naphthalen-1-yl)-3-(1-(p-tolyl)-3-(trimethylsilyl)-1H-pyrazol-5-yl)urea] | 345 | 1.8 |  |  |  |  | 
